The values below come from patent US20220378707A1, “1-(((2S,3S,4S)-3-ETHYL-4-FLUORO-5-OXOPYRROLIDIN-2-YL)METHOXY)-7-METHOXYISOQUINOLINE-6-CARBOXAMIDE COMBINATIONS AND ORAL DOSAGE FORMS” (Pfizer Inc., priority 2019, published 2022).

The structures appear in SMILES notation.

This assay has as its system coronary artery smooth muscle cells+(IL-1p, TNFα and IFNγ). The assay can be described thus: BioMAP CASM3C system. It is filed as cell-based, human. The settings on record: Th1 vascular smooth muscle inflammation; concentrations of FIGS. 12-14. An excerpt:
The BioMAP systems consist of human primary cell-based systems designed to model different aspects of the human body in an in vitro format. The 12 systems tested characterized the test compounds across a broad set of systems modeling various human disease states. BioMAP systems were constructed with one or more primary cell types from healthy human donors, with stimuli (such as cytokines or growth factors) added to capture relevant signaling networks that naturally occur in human tissue or pathological conditions. […] Soluble factors from supernatants were quantified using either HTRF® detection, bead-based multiplex immunoassay or capture ELISA. Overt adverse effects of test agents on cell proliferation and viability (cytotoxicity) were detected by sulforhodamine B (SRB) staining, for adherent cells, and alamarBlue® reduction for cells in suspension. […] Each tested compound generated a signature BioMAP profile that was created from the changes in protein biomarker readouts within individual system environments. […] Each readout was measured quantitatively by immune-based methods that detected protein (e.g., ELISA) or functional assays that measured proliferation and viability. BioMAP readouts were diverse and included cell surface receptors, cytokines, chemokines, matrix molecules and enzymes. […]

For the compound `CC[C@@H]1[C@H](F)C(=O)N[C@@H]1COc1nccc2cc(C(N)=O)c(OC)cc12` [PF-06650833, 1-(((2S,3S,4S)-3-Ethyl-4-fluoro-5-oxopyrrolidin-2-yl)methoxy)-7-methoxyisoquinoline-6-carboxamide], the “Inhibition of biomarker readouts in the CASM3C system” value is on record as “IL-6”.

As to `C[C@@H]1CCN(C(=O)CC#N)C[C@@H]1N(C)c1ncnc2[nH]ccc12` [tofacitinib, 3-((3R,4R)-4-Methyl-3-(methyl(7H-pyrrolo[2,3-d]pyrimidin-4-yl)amino)piperidin-1-yl)-3-oxopropanenitrile], the “Inhibition of biomarker readouts in the CASM3C system” value is given as “MIG”.
